Source: PubChem BioAssay AID330 (DTP/NCI, 2004)
Several values for one entry are separate records, joined by “and”; a condition that tells them apart may be missing. Identical values can stand only once. Inconclusive results and toxic doses are left out. How the source made its calls: active means survival T/C of 150% or more; inactive means T/C below 125% in these data.

Tested on: P388 leukemia ip, CD2F1 mice, survival T/C
Experiment: NCI In Vivo Anticancer Drug Screen. Data for tumor model P388 Leukemia (intraperitoneal) in CD2F1 (CDF1) mice
Conditions: endpoint: median survival time, higher = longer survival
Summary of the method: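 Mice carrying the transplanted tumor received test compound or vehicle. Survival was recorded in each group, and the value is the treated-group measurement divided by that of the vehicle-treated control group.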

[1] = dose: 50.0 mg/kg/injection, schedule: Q01DX005 (ip), vehicle: saline with Tween-80
[2] = dose: 100.0 mg/kg/injection, schedule: Q01DX005 (ip), vehicle: saline with Tween-80
[3] = dose: 200.0 mg/kg/injection, schedule: Q01DX005 (ip), vehicle: saline with Tween-80
[4] = dose: 3.12 mg/kg/injection, schedule: Q01DX005 (ip), vehicle: Klucel (hydroxypropylcellulose) (HPC)
[5] = dose: 6.25 mg/kg/injection, schedule: Q01DX005 (ip), vehicle: Klucel (hydroxypropylcellulose) (HPC)
[6] = dose: 12.5 mg/kg/injection, schedule: Q01DX005 (ip), vehicle: Klucel (hydroxypropylcellulose) (HPC)
[7] = dose: 50.0 mg/kg/injection, schedule: Q01DX005 (ip), vehicle: Klucel (hydroxypropylcellulose) (HPC)
[8] = dose: 200.0 mg/kg/injection, schedule: Q01DX005 (ip), vehicle: Klucel (hydroxypropylcellulose) (HPC)
[9] = dose: 60.0 mg/kg/injection, schedule: Q01DX005 (ip), vehicle: saline with Tween-80
[10] = dose: 120.0 mg/kg/injection, schedule: Q01DX005 (ip), vehicle: saline with Tween-80
[11] = dose: 50.0 mg/kg/injection, schedule: Q01DX009 (ip), vehicle: saline with Tween-80
[12] = dose: 100.0 mg/kg/injection, schedule: Q01DX009 (ip), vehicle: saline with Tween-80

Measured: T/C

CC1(C)CC2(CC3(C1)S(=O)(=O)CCS3(=O)=O)S(=O)(=O)CCS2(=O)=O
inactive: dose: 6.25 mg/kg/injection, schedule: Q01DX009 (ip), vehicle: saline 103 % of control | dose: 12.5 mg/kg/injection, schedule: Q01DX009 (ip), vehicle: saline 100 % of control | dose: 25.0 mg/kg/injection, schedule: Q01DX009 (ip), vehicle: saline 116 % of control | dose: 50.0 mg/kg/injection, schedule: Q01DX009 (ip), vehicle: saline 100 % of control

CCc1c(C)sc(=S)n1C(C)C(=O)OC (stereo unspecified)
inactive: [1] 98 % of control | [2] 106 % of control | [3] 107 % of control

CCCCCNC(=O)C(O)C(O)C(=O)NCCCCC (stereo unspecified)
inactive: [1] 104 % of control | [2] 101 % of control | [3] 90 % of control

CN1C(=O)CN=C(c2ccccn2)c2cc(Cl)ccc21
inactive: dose: 75.0 mg/kg/injection, schedule: Q01DX001 (ip), vehicle: saline with Tween-80 104 % of control | dose: 150.0 mg/kg/injection, schedule: Q01DX001 (ip), vehicle: saline with Tween-80 104 % of control | dose: 300.0 mg/kg/injection, schedule: Q01DX001 (ip), vehicle: saline with Tween-80 104 % of control

O=C(NP1(=O)NCc2ccccc2CN1)OC1CCCC1
inactive: [4] 99 % of control and 92 % of control | [5] 101 % of control and 91 % of control | [6] 99 % of control and 104 % of control | dose: 25.0 mg/kg/injection, schedule: Q01DX005 (ip), vehicle: Klucel (hydroxypropylcellulose) (HPC) 92 % of control and 93 % of control and 98 % of control | [7] 91 % of control | [8] 88 % of control

Cc1ccc(Nc2nnc(Nc3ccc(C)cn3)c3ccccc23)nc1
inactive: [1] 90 % of control | [2] 89 % of control

O=c1[nH]cnc2cc3[nH]ncc3cc12
inactive: dose: 1.5 mg/kg/injection, schedule: Q01DX005 (ip), vehicle: saline with Tween-80 95 % of control | dose: 3.0 mg/kg/injection, schedule: Q01DX005 (ip), vehicle: saline with Tween-80 87 % of control | dose: 6.25 mg/kg/injection, schedule: Q01DX005 (ip), vehicle: saline with Tween-80 97 % of control | [2] 89 % of control | [3] 88 % of control

COc1ccc(C(=O)c2c(C(=O)NOCCCc3ccccc3)[nH]c(=O)c(C#N)c2C(=O)NOCCCc2ccccc2)cc1
inactive: dose: 30.0 mg/kg/injection, schedule: Q01DX005 (ip), vehicle: saline with Tween-80 102 % of control | [9] 105 % of control | dose: 60.0 mg/kg/injection, schedule: Q01DX005 (ip), vehicle: saline 109 % of control | [10] 96 % of control

Cc1oc2c(C)c3oc(=O)cc(C)c3cc2c1CCl
inactive: dose: 12.5 mg/kg/injection, schedule: Q04DX002 (ip), vehicle: saline with Tween-80 114 % of control | dose: 25.0 mg/kg/injection, schedule: Q04DX002 (ip), vehicle: saline with Tween-80 123 % of control | dose: 400.0 mg/kg/injection, schedule: Q05DX002 (ip), vehicle: saline with Tween-80 98 % of control

Nc1ccc(S(=O)(=O)n2c(=O)oc3ccc(Br)cc32)cc1
inactive: dose: 100.0 mg/kg/injection, schedule: Q04DX002 (ip), vehicle: Klucel (hydroxypropylcellulose) (HPC) 93 % of control | dose: 200.0 mg/kg/injection, schedule: Q04DX002 (ip), vehicle: Klucel (hydroxypropylcellulose) (HPC) 90 % of control | dose: 400.0 mg/kg/injection, schedule: Q04DX002 (ip), vehicle: Klucel (hydroxypropylcellulose) (HPC) 93 % of control

S=c1c2ccccc2c(=S)n(-c2ccccc2)n1-c1ccccc1
inactive: dose: 60.0 mg/kg/injection, schedule: Q01DX005 (ip), vehicle: Klucel (hydroxypropylcellulose) (HPC) 91 % of control | dose: 120.0 mg/kg/injection, schedule: Q01DX005 (ip), vehicle: Klucel (hydroxypropylcellulose) (HPC) 94 % of control | dose: 240.0 mg/kg/injection, schedule: Q01DX005 (ip), vehicle: Klucel (hydroxypropylcellulose) (HPC) 92 % of control

C(=C\c1cccnc1)/c1ccncc1
inactive: dose: 25.0 mg/kg/injection, schedule: Q01DX009 (ip), vehicle: saline with Tween-80 95 % of control | [11] 104 % of control | [12] 109 % of control

COc1ccccc1C1OC2=C(Nc3ccc(Cl)cc3N2)C1=O (stereo unspecified)
inactive: dose: 7.5 mg/kg/injection, schedule: Q01DX005 (ip), vehicle: Klucel (hydroxypropylcellulose) (HPC) 100 % of control | dose: 15.0 mg/kg/injection, schedule: Q01DX005 (ip), vehicle: Klucel (hydroxypropylcellulose) (HPC) 93 % of control | dose: 30.0 mg/kg/injection, schedule: Q01DX005 (ip), vehicle: Klucel (hydroxypropylcellulose) (HPC) 87 % of control

COC(=O)C1=C/C=C\CN(C(c2ccccc2)c2ccccc2)/C=C\1C(=O)OC
inactive: dose: 50.0 mg/kg/injection, schedule: Q01DX009 (ip), vehicle: suspension in saline 100 % of control | dose: 100.0 mg/kg/injection, schedule: Q01DX001 (ip), vehicle: saline 100 % of control | dose: 100.0 mg/kg/injection, schedule: Q01DX009 (ip), vehicle: suspension in saline 89 % of control | dose: 200.0 mg/kg/injection, schedule: Q01DX001 (ip), vehicle: saline 100 % of control | dose: 200.0 mg/kg/injection, schedule: Q01DX009 (ip), vehicle: suspension in saline 95 % of control | dose: 400.0 mg/kg/injection, schedule: Q01DX001 (ip), vehicle: saline 97 % of control | dose: 400.0 mg/kg/injection, schedule: Q01DX009 (ip), vehicle: suspension in saline 104 % of control

O=C1c2ccccc2-c2c1c1ccccc1n2S(=O)(=O)c1ccccc1
inactive: dose: 100.0 mg/kg/injection, schedule: Q01DX001 (ip), vehicle: Klucel (hydroxypropylcellulose) (HPC) 103 % of control | dose: 200.0 mg/kg/injection, schedule: Q01DX001 (ip), vehicle: Klucel (hydroxypropylcellulose) (HPC) 103 % of control | dose: 400.0 mg/kg/injection, schedule: Q01DX001 (ip), vehicle: Klucel (hydroxypropylcellulose) (HPC) 101 % of control

CCOC(=O)Nc1nc2cc(C(=O)OC)n(C)c2s1
inactive: [11] 95 % of control | [12] 86 % of control | dose: 200.0 mg/kg/injection, schedule: Q01DX009 (ip), vehicle: saline with Tween-80 88 % of control

O=C1C(Cl)=C(Oc2ccccc2Cl)C(=O)C(Cl)=C1Oc1ccccc1Cl
inactive: [4] 91 % of control and 96 % of control | [5] 98 % of control and 92 % of control | [6] 86 % of control and 87 % of control and 97 % of control | [7] 102 % of control | dose: 100.0 mg/kg/injection, schedule: Q01DX005 (ip), vehicle: Klucel (hydroxypropylcellulose) (HPC) 99 % of control | [8] 96 % of control

CC#CC#C/C=C1/C=CC2(CCCCO2)O1 (stereo unspecified)
inactive: dose: 12.5 mg/kg/injection, schedule: Q01DX009 (ip), vehicle: Klucel (hydroxypropylcellulose) (HPC) 100 % of control | dose: 25.0 mg/kg/injection, schedule: Q01DX009 (ip), vehicle: Klucel (hydroxypropylcellulose) (HPC) 101 % of control | dose: 50.0 mg/kg/injection, schedule: Q01DX009 (ip), vehicle: Klucel (hydroxypropylcellulose) (HPC) 107 % of control | dose: 100.0 mg/kg/injection, schedule: Q01DX009 (ip), vehicle: Klucel (hydroxypropylcellulose) (HPC) 104 % of control

O=C(O)Cc1cccc(S(=O)(=O)F)c1
inactive: [9] 104 % of control | [10] 100 % of control

Oc1cc2c(cc1C(c1ccc(Cl)cc1)N1CCOCC1)OCO2 (stereo unspecified)
inactive: [9] 102 % of control | [10] 111 % of control | dose: 240.0 mg/kg/injection, schedule: Q01DX005 (ip), vehicle: saline with Tween-80 124 % of control

CCc1nc(N)nc(N)c1-c1ccc2c(c1)nnn2C1CCCCC1
inactive: [1] 100 % of control | [2] 100 % of control | [3] 87 % of control
